{"source": "patent US6906048B2", "about": "“N-acetylcolchinol-O-phosphate combination therapies with vascular damaging activity” (AstraZeneca AB, priority 2000, dated 2005)", "key": {"murine KHT sarcoma [1]": {"test_system": "murine KHT sarcoma", "test": "KHT sarcoma tumour model, ZD6126 and radiation (tumour cell survival, excision and colony formation)", "format": "in vivo, mice", "protocol": "The murine KHT sarcoma grown in C3H mice was also used to confirm the advantage of combining ZD6126 and radiation. Tumours were treated with either radiation alone (0, 5, 10, 15 or 20 Gy single dose), ZD6126 100 mg/kg i.p., or radiation followed 1 hour later by ZD6126 100 mg/kg i.p.. The effects of either radiation alone, ZD6126 alone or the combination on tumour cell survival was assessed 24 hours later by excising the tumour, disaggregating the cells and determining the number of colonies formed after 10-14 days. Surviving fraction compared to untreated cells was then determined."}, "[2]": {"test_system": "murine adenocarcinoma CaNT tumour", "test": "Cell survival assay, CaNT tumour model: effect of dosage interval and split dose proportions", "format": "in vivo, mice", "protocol": "(§1) In vivo cell survival was measured using an excision assay (D J Chaplin et al., Anticancer Research 19: 189-196 (1999)).\n(§2) Tumours were excised at about 18 hours after treatment, weighed and disaggregated for 1 hour at 37 degrees Celsius in an enzyme cocktail containing 1 mg/ml pronase, 0.5 mg/ml DNAase and 0.5 mg/ml collagenase. Haemocytometer counts of trypan blue-excluding cells were made and viable cells seeded in appropriate concentrations to yield about 50 colonies/dish after in vitro incubation. Heavily irradiated feeder cells (V79 cells) were used at a concentration of 25,000/ml to support the growth of the surviving CaNT cells. The data were calculated as surviving fraction per gram of tumour.\nThis improved effect varied with the proportion of total dose given in the first and second doses.\n(§3) ZD6126 was administered as a single dose of […] intra-peritoneally (i.p.) in saline with a small amount of 1% sodium carbonate added to aid the dissolution of ZD6126.\nZD6126 was dosed using split dose regimens of: • i) 25 mg/kg ZD6126, followed by a 2 hour interval, followed by a further 175 mg/kg ZD6126; • ii) 50 mg/kg ZD6126, followed by a 2 hour interval, followed by a further 150 mg/kg ZD6126; • iii) 100 mg/kg ZD6126, followed by a 2 hour interval, followed by a further 100 mg/kg ZD6126; • iv) 150 mg/kg ZD6126, followed by a 2 hour interval, followed by a further 50 mg/kg ZD6126; • v) 175 mg/kg ZD6126, followed by a 2 hour interval, followed by a further 25 mg/kg ZD6126; All doses were given intraperitoneally (i.p.) in saline with a small amount of 1% sodium carbonate added to aid the dissolution of ZD6126."}, "[3]": {"test_system": "murine adenocarcinoma CaNT tumour", "test": "Cell survival assay, CaNT tumour model: effect of dosage interval", "format": "in vivo, mice", "conditions": "two doses of 100 mg/kg i.p. separated by 2, 3 or 4 hours; tumours excised about 18 hours after treatment", "protocol": "as §1, §2, §3\nZD6126 was dosed using a split dose regimen of 100 mg/kg ZD6126, followed by a time interval, followed by a further 100 mg/kg ZD6126; doses were given intraperitoneally (i.p.) in saline with a small amount of 1% sodium carbonate added to aid the dissolution of ZD6126. The time intervals used were 1, 2, 3, 4 and 6 hours."}, "[4]": {"test_system": "murine adenocarcinoma CaNT tumour", "test": "CaNT tumour model, ZD6126 and cisplatin, second study (tumour growth delay)", "format": "in vivo", "conditions": "study 2, female CBA mice; ZD6126 100 + 100 mg/kg i.p. 2 h apart on days 0, 4, 7, 11; cisplatin 5 mg/kg i.p. days 0 and 7", "protocol": "ZD6126 alone was dosed on days 0, 4, 7 and 11 using a split dose regimen of ZD6126 100 mg/kg i.p., followed by a 2 hour interval, followed by a further 100 mg/kg ZD6126 i.p.. Cisplatin alone was dosed at 5 mg/kg i.p on day 0 and day 7.\nThe combination treatment consisted of: • Days 0 and 7: ZD6126 100 mg/kg i.p., followed by a 2 hour interval, followed by a further 100 mg/kg ZD6126 i.p.; cisplatin given 10 minutes before first ZD6126 dose. • Days 3, 7 and 10: ZD6126 100 mg/kg i.p., followed by a 2 hour interval, followed by a further 100 mg/kg ZD6126 i.p.."}, "murine KHT sarcoma [5]": {"test_system": "murine KHT sarcoma", "test": "KHT sarcoma tumour model, cisplatin plus ZD6126 (tumour cell survival, excision and colony formation)", "format": "in vivo, mice", "conditions": "10 mg/kg cisplatin i.p. alone, assessed 24 hours later", "protocol": "In the murine KHT sarcoma model (Lingyun Li, B. S. et al, Int. J. Radiation Oncology Biol. Phys 42, 899-903, 1998) tumours were treated with either 10 mg/kg cisplatin i.p. alone or 10 mg/kg cisplatin plus ZD6126 (10-100 mg/kg i.p.), cisplatin given 1 hour prior to ZD6126. The effects of the treatments on tumour cell survival was assessed 24 hours later by excising the tumour, disaggregating the cells and determining the number of colonies formed after 10-14 days. Surviving fraction compared to untreated cells was then determined."}, "[6]": {"test_system": "murine adenocarcinoma CaNT tumour", "test": "CaNT tumour model, ZD6126 and cisplatin, first study (tumour growth delay)", "format": "in vivo", "conditions": "study 1, female CBA mice; ZD6126 100 + 100 mg/kg i.p. 2 h apart on days 0, 2, 4; cisplatin 5 mg/kg i.p. day 0", "protocol": "ZD6126 alone was dosed on days 0, 2 and 4 using a split dose regimen of 100 mg/kg ZD6126, followed by a 2 hour interval, followed by a further 100 mg/kg ZD6126; doses were given intraperitoneally (i.p.).\nCisplatin (David Bull Laboratories) alone was dosed at 5 mg/kg i.p on day 0.\nThe combination treatment consisted of: • Day 0: ZD6126 100 mg/kg i.p., followed by a 2 hour interval, followed by a further 100 mg/kg ZD6126 i.p; and cisplatin 5 mg/kg given 10 minutes before first ZD6126 dose. • Days 2 and 4: ZD6126 100 mg/kg i.p., followed by a 2 hour interval, followed by a further 100 mg/kg ZD6126 i.p."}, "[7]": {"test_system": "human Calu 6 tumour cells", "test": "Calu 6 tumour model, ZD6126 and cisplatin (tumour growth delay)", "format": "in vivo", "conditions": "athymic nude mice; ZD6126 100 mg/kg i.p. daily x5 (days 0-4 alone, days 1-5 in combination); cisplatin 4 mg/kg i.p. day 0", "protocol": "In a second tumour model, Calu 6, the advantage of combining ZD6126 and cisplatin (cis-Platinum(lI)Diammine Dichloride—Sigma P-4394) was confirmed. Athymic nude mice were implanted subcutaneously with 1×10^6 human Calu 6 tumour cells (obtained from American Type Culture Collection, 10801 University Boulevard, Manassas, Va. 20110-2209 Cat. no. HTB-56) and tumours allowed to grow until they were approximately 9 mm in diameter.\nGroups of 10 tumour bearing mice were then treated as follows: • ZD6126 alone was dosed 100 mg/kg i.p. on days 0, 1, 2, 3, 4. • Cisplatin alone was dosed 4 mg/kg i.p. on day 0.\nIn the combination arm cisplatin 4 mg/kg i.p. was dosed on day 0, and ZD6126 100 mg/kg i.p. was dosed on days 1, 2, 3, 4 and 5."}}, "data": [{"compound": "COc1cc2c(c(OC)c1OC)-c1ccc(OP(=O)(O)O)cc1[C@@H](NC(C)=O)CC2", "note": "[ZD6126, (5S)-5-(acetylamino)-9,10,11-trimethoxy-6,7-dihydro-5H-dibenzo[a,c]cyclohepten-3-yl dihydrogen phosphate]", "values": [{"measurement": "enhanced cell killing over controls", "setting": "murine KHT sarcoma [1]; ZD6126 alone with no radiation", "value": 40, "unit": "fold"}, {"measurement": "Plus ZD6126 % cell survival", "setting": "murine KHT sarcoma [1]; radiation dose 0 Gy, ZD6126 100 mg/kg i.p., C3H mice, 24 hours later", "value": 2.5, "unit": "%"}, {"measurement": "Plus ZD6126 % cell survival", "setting": "murine KHT sarcoma [1]; radiation dose 5 Gy followed 1 hour later by ZD6126 100 mg/kg i.p.", "value": 0.16, "unit": "%"}, {"measurement": "Plus ZD6126 % cell survival", "setting": "murine KHT sarcoma [1]; radiation dose 10 Gy followed 1 hour later by ZD6126 100 mg/kg i.p.", "value": 0.015, "unit": "%"}, {"measurement": "Plus ZD6126 % cell survival", "setting": "murine KHT sarcoma [1]; radiation dose 15 Gy followed 1 hour later by ZD6126 100 mg/kg i.p.", "value": 0.0016, "unit": "%"}, {"measurement": "split dose proportion giving the best anti-tumour effect", "setting": "[2]; regimen iii) 100 mg/kg + 100 mg/kg, 2 hour interval", "value": "best effect was seen with equal split doses"}, {"measurement": "significance of the greater effect of divided doses over a single dose", "setting": "[2]; regimens i) 25+175, iii) 100+100 or iv) 150+50 mg/kg, 2 hour interval", "value": "significant"}, {"measurement": "anti-tumour effect, as measured by surviving fraction of tumour cells, divided doses compared with single dose", "setting": "[2]; total 200 mg/kg i.p. in two doses 2 hours apart, regimens i) to v)", "value": "greater with divided doses of ZD6126 than with a single dose of 200 mg/kg ZD6126"}, {"measurement": "surviving fraction of tumour cells, divided doses compared with single dose", "setting": "[3]", "value": "significantly more effective in this model than a single 200 mg/kg dose"}]}, {"compound": "[NH2][Pt]([NH2])([Cl])[Cl]", "note": "[Cisplatin, cis-Platinum(lI)Diammine Dichloride]", "values": [{"measurement": "Mean growth delay (vs control) - days", "setting": "[4]", "value": 7.7, "unit": "days"}, {"measurement": "cell killing", "setting": "murine KHT sarcoma [5]", "value": "approximately 98%"}, {"measurement": "Mean growth delay (vs control) - days", "setting": "[6]", "value": 2.1, "unit": "days"}, {"measurement": "growth delay (time to reach 2× starting volume) compared to control tumours", "setting": "[7]", "value": 6.0, "unit": "days"}]}]}
